This note sets out measurements from patent US10918107B2, “Encapsulated lactams” (Conopco, Inc., priority 2015, dated 2021).

This data set is described as follows: Solubility of the lactam in 2-heptanone carrier oil. Format: physicochemical. Conditions: 'also soluble at 1%' (0.5% solution used in the example). How it is done: 2-heptanone was used as the carrier (oil phase) for the lactam at a ratio of 1:199 (Lactam:Heptanone) which equates to 0.5% lactam solution. The inventor(s) have determined that the lactam is also soluble at 1%. The isocyanate was polymethylene polyphenyl isocyanate (Mn340) and the crosslinker was hexamethylenediamine (HMDA). Emulsification was carried out at a shear of 15K. The stabiliser is a commercial naphthalene sulphonate called Morwet-D425®. Morwet forms dark brown solutions so the encapsulated slurry is often buff/brown coloured.

Each structure is given as a SMILES string.

As to `C=C1NC(=O)C=C1c1ccc(Cl)cc1` [Ref. 488, 4-(4-chlorophenyl)-5-methylene-pyrrol-2-one], the “solubility of lactam in 2-heptanone (carrier oil)” value is not below 1%.
